The values that follow come from patent publication US7435837B2, “Dihydrobenzofuranyl alkanamine derivatives and methods for using same” (Wyeth, priority 2003, dated 2008).

For the assay, the target named is T1, human 5-hydroxytryptamine-2C (h5-HT2C) receptor (Homo sapiens, UniProt P28335).
T1 construct: expressed in transfected cells; host or cells: CHO (Chinese Hamster Ovary) cells; membranes
T1 sequence (P28335 33-458): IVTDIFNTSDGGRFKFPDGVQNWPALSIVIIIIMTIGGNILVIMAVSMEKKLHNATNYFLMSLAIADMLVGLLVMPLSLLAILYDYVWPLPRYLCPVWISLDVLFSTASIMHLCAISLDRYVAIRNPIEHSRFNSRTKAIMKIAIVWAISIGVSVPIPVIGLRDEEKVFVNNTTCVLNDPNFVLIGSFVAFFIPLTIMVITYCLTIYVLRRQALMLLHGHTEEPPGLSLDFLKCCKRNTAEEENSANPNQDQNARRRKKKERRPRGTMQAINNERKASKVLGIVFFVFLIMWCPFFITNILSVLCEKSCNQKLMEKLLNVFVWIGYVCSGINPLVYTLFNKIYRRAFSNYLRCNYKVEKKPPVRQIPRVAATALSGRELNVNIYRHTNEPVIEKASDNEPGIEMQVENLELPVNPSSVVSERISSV
Briefly: [125I]DOI binding to membranes of CHO cells expressing the human 5-HT2C receptor. The settings on record: [125I]DOI radioligand, CHO cell membranes, room temperature 60 min; read-out: 5-HT2C Affinity Ki.
Regarding `CCCCc1ccc(-c2cc(C(F)(F)F)cc3c2OC(CN)C3)cc1` (racemic) [Example 339, (±)-{[7-(4-butylphenyl)-5-(trifluoromethyl)-2,3-dihydro-1-benzofuran-2-yl]methyl}amine], the Ki was determined as 328 nM.
With `NCC1Cc2cc(C(F)(F)F)cc(-c3ccc(F)cc3)c2O1` (racemic) [Example 324, (±)-{[5-(trifluoromethyl)-7-(4-fluorophenyl)-2,3-dihydro-1-benzofuran-2-yl]methyl}amine], the Ki was determined as 60 nM.
Next, `NCC1Cc2cccc(-c3cccc(C(F)(F)F)c3)c2O1` (single isomer, unassigned; (+)) [Example 136, (+)-1-{7-[3-(trifluoromethyl)phenyl]-2,3-dihydro-1-benzofuran-2-yl}methanamine]: 124 nM; `NCC1Cc2cccc(Nc3cc(Cl)cc(Cl)c3)c2O1` (racemic) [Example 189, (±)-N-[2-(aminomethyl)-2,3-dihydro-1-benzofuran-7-yl]-N-(3,5-dichlorophenyl)amine]: 363 nM.
Consider `NCC1Cc2cc(-c3ccccc3)cc(-c3cc(Cl)ccc3Cl)c2O1` (racemic) [Example 355, (±)-{[7-(2,5-dichlorophenyl)-5-phenyl-2,3-dihydro-1-benzofuran-2-yl]methyl}amine], for which the inhibition constant Ki is 385 nM.
Next, `CNCC1Cc2cc(Cl)cc(C3CCCCC3)c2O1` (racemic) [Example 12, (±)-N-[(5-chloro-7-cyclohexyl-2,3-dihydro-1-benzofuran-2-yl)methyl]-N-methylamine]: 127 nM; `NCC1Cc2c(cccc2-c2ccccc2C(F)(F)F)O1` (single isomer, unassigned; (+)) [Example 124, (+)-1-{4-[2-(trifluoromethyl)phenyl]-2,3-dihydro-1-benzofuran-2-yl}methanamine]: 53 nM.
In the case of `NCC1Cc2cc(Cl)cc(-c3cccc(Cl)c3)c2O1` (racemic) [Example 89, (±)-1-[5-chloro-7-(3-chlorophenyl)-2,3-dihydro-1-benzofuran-2-yl]methanamine], the Ki was 40 nM.
Regarding `COc1cccc(-c2cccc3c2OC(CN)C3)c1` (single isomer, unassigned; (-)) [Example 134, (−)-1-[7-(3-methoxyphenyl)-2,3-dihydro-1-benzofuran-2-yl]methanamine], the inhibitory constant (Ki) was 483 nM.
With `NCC1Cc2cc(C(F)(F)F)cc(-c3ccc(Cl)cc3)c2O1` (racemic) [Example 325, (±)-{[5-(trifluoromethyl)-7-(4-chlorophenyl)-2,3-dihydro-1-benzofuran-2-yl]methyl}amine], the Ki worked out at 320 nM.
As for `NCC1Cc2cc(Cl)cc(-c3ccccc3)c2O1` (racemic) [Example 84, (±)-1-(5-chloro-7-phenyl-2,3-dihydro-1-benzofuran-2-yl)methanamine], the inhibitory constant (Ki) was 11 nM.
Next, `COc1cc2c(c(C(C)(C)C)c1)OC(CN)C2` (single isomer, unassigned; (-)) [Example 115, (−)-1-(7-tert-butyl-5-methoxy-2,3-dihydro-1-benzofuran-2-yl)methanamine]: 79 nM; `Cc1cccc(C)c1-c1cccc2c1CC(CN)O2` (single isomer, unassigned; (-)) [Example 127, (−)-1-[4-(2,6-dimethylphenyl)-2,3-dihydro-1-benzofuran-2-yl]methanamine]: 20 nM; `Cc1ccc(-c2cc(F)c3c(c2)CC(CN)O3)cc1` (racemic) [Example 385, (±)-{[7-fluoro-5-(4-methylphenyl)-2,3-dihydro-1-benzofuran-2-yl]methyl}amine]: 1350 nM.
Consider `CNCC1Cc2cc(-c3ccccc3Cl)cc(F)c2O1` (racemic) [Example 529, (±)-{[7-fluoro-5-(2-chlorophenyl)-2,3-dihydro-1-benzofuran-2-yl]methyl}methylamine], for which the Ki came out at 616 nM.
Consider `NCC1Cc2cccc(-c3ccccc3F)c2O1` (single isomer, unassigned; (-)) [Example 52, (−)-1-[7-(2-fluorophenyl)-2,3-dihydro-1-benzofuran-2-yl]methanamine], for which the inhibition constant (Ki) was found to be 13 nM.
As for `COc1cccc2c1OC(CN)C2` (racemic) [Example 7, (±)-1-(7-methoxy-2,3-dihydro-1-benzofuran-2-yl)methanamine], the Ki was found to be 160 nM.
Take `NCC1Cc2cc(C(F)(F)F)cc(-c3ccccc3C(F)(F)F)c2O1` (racemic) [Example 317, (±)-{[5-(trifluoromethyl)-7-(2-(trifluoromethyl)phenyl)-2,3-dihydro-1-benzofuran-2-yl]methyl}amine]: the inhibition constant Ki stood at 84 nM.
For the molecule `CNCC1Cc2cc(-c3ccccc3)cc(-c3ccc(C)cc3)c2O1` (racemic) [Example 513, (±)-{[7-(4-methylphenyl)-5-phenyl-2,3-dihydro-1-benzofuran-2-yl]methyl}methylamine], the Ki worked out at 1150 nM.
As to `CC1(CN)Cc2cc(Cl)cc(-c3ccsc3)c2O1` (racemic) [Example 113, (±)-(5-chloro-2-methyl-7-thien-3-yl-2,3-dihydro-1-benzofuran-2-yl)methylamine], the Ki came out at 130 nM.
Next, `COc1ccccc1-c1cc(C(F)(F)F)cc2c1OC(CN)C2` (racemic) [Example 316, (±)-{[5-(trifluoromethyl)-7-(2-methoxyphenyl)-2,3-dihydro-1-benzofuran-2-yl]methyl}amine]: 64 nM; `NCC1Cc2cccc(-c3ccc(F)c(Cl)c3)c2O1` (racemic) [Example 34, (±)-1-[7-(3-chloro-4-fluorophenyl)-2,3-dihydro-1-benzofuran-2-yl]methanamine]: 37 nM.
Then `NCC1Cc2cccc(-c3cccc4ccccc34)c2O1` (racemic) [Example 33, (±)-1-[7-(1-naphthyl)-2,3-dihydro-1-benzofuran-2-yl]methanamine], with 32 nM; and `NCC1Cc2cccc(-c3cc(C(F)(F)F)cc(C(F)(F)F)c3)c2O1` (racemic) [Example 32, (±)-1-{7-[3,5-bis(trifluoromethyl)phenyl]-2,3-dihydro-1-benzofuran-2-yl}methanamine], with 419 nM; and `NCC1Cc2cccc(Cc3ccccc3)c2O1` (racemic) [Example 15, (±)-1-(7-benzyl-2,3-dihydro-1-benzofuran-2-yl)methanamine], with 222 nM.
Then `CNCC1Cc2cc(OC)cc(-c3cc(Cl)ccc3OC)c2O1` (racemic) [Example 502, (±)-{[7-(5-chloro-2-methoxyphenyl)-5-methoxy-2,3-dihydro-1-benzofuran-2-yl]methyl}methylamine], with 60 nM; and `COc1cccc(-c2cc(C(F)(F)F)cc3c2OC(CN)C3)c1` (racemic) [Example 321, (±)-{[5-(trifluoromethyl)-7-(3-methoxyphenyl)-2,3-dihydro-1-benzofuran-2-yl]methyl}amine], with 59 nM; and `CNCC1Cc2cc(OC)cc(-c3ccc(F)c(Cl)c3)c2O1` (racemic) [Example 503, (±)-{[7-(3-chloro-4-fluorophenyl)-5-methoxy-2,3-dihydro-1-benzofuran-2-yl]methyl}methylamine], with 78 nM.
Turning to `NCC1Cc2cccc(Nc3ccc(F)cc3)c2O1` (racemic) [Example 178, (±)-N-[2-(aminomethyl)-2,3-dihydro-1-benzofuran-7-yl]-N-(4-fluorophenyl)amine], the inhibitory constant (Ki) stood at 310 nM.
Then `NCC1Cc2cc(-c3ccccc3F)cc(F)c2O1` (racemic) [Example 377, (±)-{[7-fluoro-5-(2-fluorophenyl)-2,3-dihydro-1-benzofuran-2-yl]methyl}amine], with 194 nM; and `NCC1Cc2cc(-c3ccccc3)cc(-c3ccc(F)cc3F)c2O1` (racemic) [Example 354, (±)-{[7-(2,4-difluorophenyl)-5-phenyl-2,3-dihydro-1-benzofuran-2-yl]methyl}amine], with 610 nM.
For `CC1(CN)Cc2cc(Cl)cc(-c3cccs3)c2O1` (racemic) [Example 114, (±)-(5-chloro-2-methyl-7-thien-2-yl-2,3-dihydro-1-benzofuran-2-yl)methylamine], the inhibition constant (Ki) stood at 471 nM.
In the case of `CNCC1Cc2cc(C(F)(F)F)cc(-c3cc(C(F)(F)F)cc(C(F)(F)F)c3)c2O1` (racemic) [Example 527, (±)-{[7-[3,5-bis(trifluoromethyl)phenyl]-5-(trifluoromethyl)-2,3-dihydro-1-benzofuran-2-yl]methyl}methylamine], the inhibition constant (Ki) came out at 4740 nM.
With `NCC1Cc2cccc(Nc3ccc(Cl)c(Cl)c3)c2O1` (racemic) [Example 179, (±)-N-[2-(aminomethyl)-2,3-dihydro-1-benzofuran-7-yl]-N-(3,4-dichlorophenyl)amine], the inhibition constant (Ki) came to 435 nM.
Then `CNCC1Cc2cc(C(F)(F)F)cc(-c3cccc(C)c3)c2O1` (racemic) [Example 519, (±)-N-methyl-1-[7-(3-methylphenyl)-5-(trifluoromethyl)-2,3-dihydro-1-benzofuran-2-yl]methanamine], with 488 nM; and `CC(C)c1ccccc1-c1cccc2c1OC(CN)C2` (single isomer, unassigned; (-)) [Example 63, (−)-[7-(2-isopropylphenyl)-2,3-dihydro-1-benzofuran-2-yl]methylamine], with 52 nM; and `CNCC1Cc2cc(-c3ccccc3)cc(-c3ccccc3OC)c2O1` (racemic) [Example 514, (±)-{[7-(2-methoxyphenyl)-5-phenyl-2,3-dihydro-1-benzofuran-2-yl]methyl}methylamine], with 242 nM.
